Reference: ChEMBL document CHEMBL1811826, “Structure-activity relationship and docking studies of thiazolidinedione-type compounds with monoamine oxidase B” (Bioorg Med Chem Lett, 2011)
Activity calls are given as the source filed them. The calls are words filed in the database; no cut-off is given here.

How the values were obtained:
[1] = biological target: T1, Amine oxidase [flavin-containing] A (Homo sapiens, UniProt P21397); experiment: Inhibition of human recombinant MAOA assessed as inhibition of kynuramine conversion to fluorescent metabolite 4-hydroxyquinoline by fluorimetry
T1 sequence (P21397 whole entry): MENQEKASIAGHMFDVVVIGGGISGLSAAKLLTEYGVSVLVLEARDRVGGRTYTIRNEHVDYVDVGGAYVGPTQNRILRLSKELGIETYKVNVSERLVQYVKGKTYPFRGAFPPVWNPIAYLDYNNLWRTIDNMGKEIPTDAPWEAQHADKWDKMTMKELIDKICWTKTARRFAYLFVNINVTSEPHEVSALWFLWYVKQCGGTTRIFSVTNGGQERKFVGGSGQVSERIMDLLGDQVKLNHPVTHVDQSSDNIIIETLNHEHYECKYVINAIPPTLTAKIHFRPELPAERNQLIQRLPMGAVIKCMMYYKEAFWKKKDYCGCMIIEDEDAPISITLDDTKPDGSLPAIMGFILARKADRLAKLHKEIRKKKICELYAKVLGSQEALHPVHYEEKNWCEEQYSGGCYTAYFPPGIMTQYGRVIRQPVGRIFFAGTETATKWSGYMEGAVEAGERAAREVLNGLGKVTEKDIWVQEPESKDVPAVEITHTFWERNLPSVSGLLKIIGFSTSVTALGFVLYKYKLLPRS

[2] = biological target: T2, Amine oxidase [flavin-containing] B (Homo sapiens, UniProt P27338); experiment: Inhibition of human recombinant MAOB by amplex red assay
T2 sequence (P27338 whole entry): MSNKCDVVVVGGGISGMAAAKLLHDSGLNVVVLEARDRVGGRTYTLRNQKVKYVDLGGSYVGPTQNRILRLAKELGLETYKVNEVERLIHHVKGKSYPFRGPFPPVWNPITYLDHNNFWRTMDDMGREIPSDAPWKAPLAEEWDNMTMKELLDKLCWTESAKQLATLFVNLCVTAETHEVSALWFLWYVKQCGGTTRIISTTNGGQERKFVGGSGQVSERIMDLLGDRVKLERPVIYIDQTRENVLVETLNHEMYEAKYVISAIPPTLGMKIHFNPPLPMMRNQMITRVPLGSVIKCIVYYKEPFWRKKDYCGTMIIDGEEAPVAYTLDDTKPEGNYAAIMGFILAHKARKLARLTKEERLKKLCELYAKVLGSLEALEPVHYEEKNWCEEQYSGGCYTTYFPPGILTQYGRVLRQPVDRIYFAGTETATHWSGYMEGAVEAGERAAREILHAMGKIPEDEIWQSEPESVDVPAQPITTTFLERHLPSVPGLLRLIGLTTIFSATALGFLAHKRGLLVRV

Mus musculus [3] = experiment: Toxicity in C57BL/6 mouse assessed as striatal dopamine level at 10 mg/kg, sc measured after 7 days by HPLC method; type: organism-based; design: dose 10 mg/kg, route subcutaneous; details: in vivo, 168 h
Mus musculus [4] = experiment: Neuroprotective activity in MPTP-stimulated C57BL/6 mouse assessed as increase in striatal dopamine content at 10 mg/kg, sc administered 1 hr before MPTP challenge measured after 7 days by HPLC method; type: functional, organism-based; design: dose 10 mg/kg

IC50 [1] [µM]	IC50 [2] [µM]	SMILES	Activity (Mus musculus [3])	Activity (Mus musculus [4])
37.3	56	O=C1NC(=O)/C(=N\c2ccc(C(=O)O)cc2)S1		
35.3	22	O=C(/C=C1/SC(=O)NC1=O)Nc1ccccc1		
	24.1	N=C1NC(=O)C(Cc2ccccc2)S1 (stereo unspecified)		
67.3	6.07	O=C1NC(=O)/C(=C\c2cccc(Br)c2)S1		
	273	O=C(O)C(Cc1ccc(O)cc1)N1C(=O)CSC1=S (stereo unspecified)		
194	225	O=C1NC(=O)C(Cc2ccc(O)cc2)S1 (stereo unspecified) [GLITAZONE]		
50.5		Cc1cc(C)cc(CC2SC(=O)NC2=O)c1 (stereo unspecified)		
252	309	CC(=O)c1ccc(CC2SC(=N)NC2=O)cc1 (stereo unspecified)		
35.3	11	O=C(/C=C1/SC(=O)NC1=O)Nc1cccc(O)c1		
399	36.5	CN1C(=O)/C(=C\c2ccc(Cl)cc2)SC1=S		
13		O=C1NC(=O)/C(=C\c2ccncc2)S1		
26.2	16.1	Cc1cc(CC2SC(=O)NC2=O)cc(C)c1O (stereo unspecified)		

Further lines, the molecule ahead of its results:

SMILES	IC50 [1] [µM]	IC50 [2] [µM]	Activity (Mus musculus [3])	Activity (Mus musculus [4])
CCCN1C(=O)/C(=C\c2ccncc2)SC1=S	10.6	0.8		
CCOc1ccc(/C=C2\SC(=O)N(CCN)C2=O)cc1	1.04			
O=C1NC(=O)/C(=C\c2cc(Br)c(O)c(Br)c2)S1	39.9	1.02		
O=C1NC(=S)S/C1=C/c1ccncc1	21.8			
COc1ccccc1/C=C1\SC(=O)N(CCN)C1=O	29.8			
CN1C(=O)/C(=C\c2ccccc2)SC1=S	0.52	10.5		
COc1cc(/C=C2/SC(=S)NC2=O)c(OC)cc1O	380	31.6		
CN(C)c1ccc(/C=C2\SC(=O)N(CCN)C2=O)cc1	6.88			
COc1cc(/C=C2\SC(=S)NC2=O)ccc1O	28.6	2.49		
CC(C)(C)c1cc(CC2SC(=O)N=C2O)cc(C(C)(C)C)c1O (stereo unspecified)		2.38	Non-toxic	Active
N#CCCN1C(=O)S/C(=C\c2ccccc2)C1=O	3.49			
O=C(O)CCN1C(=O)/C(=C\c2ccccc2)SC1=S	70.5	604		
O=C1NC(=O)/C(=C/c2ccc3nccnc3c2)S1	166			
